Source: US10975385B2, “Methods of modulating stomata conductance and plant expression constructs for executing same” (The State of Israel, Ministry of Agriculture & Rural …, priority 2011, dated 2021)

What was measured:
[1] = system: stomata (stomatal aperture); test: Stomatal aperture of intact leaves immersed in artificial apoplastic sap, measured on epidermal imprints; type: cell-based, tomato (Solanum lycopersicum cv. MP-1); conditions: 3 h
Protocol: Stomatal aperture and density are determined using the rapid imprinting technique described by […] and Sack (2002). This approach allows to reliably score hundreds of stomata from each experiment, each of which is sampled at the same time. Light-bodied vinylpolysiloxane dental resin (Heraeus-Kulzer, Hanau, Germany) is attached to the abaxial leaf side and then removed as soon as it dries (1 min). The resin epidermal imprints are than covered with nail polish, which removed once it had dried out and serves as a mirror image of the resin imprint. The nail-polish imprints are put on glass cover slips and photographed under bright-field microscope. Stomata images are later analyzed to determine aperture size using the ImageJ software (World Wide Web (dot) rsb (dot) info (dot) nih (dot) gov/ij/) fit-ellipse tool or any other software that can process and analyze images. A microscopic ruler is used for the size calibration. Additional information can be obtained from the software such as stomata width, length, area, perimeter etc. To assess stomatal responses, leaflets are cut and immediately immerse in artificial xylem sap solution (AXS) (Wilkinson and Davies, 1997) containing 100 mM sucrose (Duchefa Biochemie) with or without 20 mM N-acetyl glucosamine (NAG, Sigma-Aldrich), 100 mM or 200 mM glucose (Duchefa Biochemie), 100 mM or 200 mM fructose (Sigma-Aldrich), 100 mM 2-deoxyglucose (Sigma-Aldrich), 10 mM or 100 mM mannose (Sigma-Aldrich), 100 mM sorbitol (Sigma-Aldrich) or 100 mM or 200 mM mannitol (Duchefa Biochemie). The sorbitol and mannitol treatments serve as non-metabolic osmotic controls. Imprints are taken 3 h after immersion and stomatal aperture is analyzed. Different plant species can be used as well as, AXS solutions, treatment solutions and different timings to our decision.

[2] = system: guard cells; test: Nitric oxide production in guard cells of epidermal peels (DAF-2DA fluorescence); type: cell-based, tomato; conditions: for NO production and stomatal closure in ABA-deficient mutant: Sitiens epidermal peels, 100 mM Suc or 100 μM ABA; for effect on NO levels in guard cells: 100 mM sorbitol or 20 mM NAG with 100 mM Suc
Protocol: Detection of nitric oxide (NO) levels in stomata is performed as follows: Epidermal peels are prepared and incubated in MES buffer [25 mM MES-KOH, pH=6.15 and 10 mM KCl (MES, 2-(N-morpholino)-ethane sulfonic acid; Sigma-Aldrich] with or without 20 mM NAG, for 2.5 h under steady light, and then loaded with 60 μM NO indicator dye, DAF-2DA (4, 5-diaminofluorescein diacetate; Sigma-Aldrich), diluted in MES buffer with or without 20 mM N-acetyl glucosamine (NAG, Sigma-Aldrich) and left for an additional 50 min. Then, the peels are washed with MES 3 times and re-incubated for 30 min in the buffer (control, set as 100% fluorescence) or in 100 mM sorbitol, 100 mM sucrose and 20 mM NAG. The peels are then photographed under a microscope (see Materials and Methods, “Confocal microscopy imaging”). Three to four biological repeats containing 20-30 stomata each are included in each experiment and each experiment is repeated several times. Images are analyzed using the ImageJ software histogram tool to evaluate fluorescence intensity and the fit-ellipse tool to determine stomatal aperture. It is possible to use epidermal strips from different species, use different treatments solutions and different timings, all to our decision. Images are acquired using the OLYMPUS IX 81 (Japan) inverted laser scanning confocal microscope (FLUOVIEW 500) equipped with a 488-nm argon ion laser and a 60X1.0 NA PlanApo water immersion objective. Nitric oxide- DAF-2DA (4, 5-diaminofluorescein diacetate; Sigma-Aldrich) fluorescence is excited by 488-nm light and the emission is collected using a BA 505-525 filter. GFP is excited by 488-nm light and the emission is collected using a BA 505-525 filter. A BA 660 IF emission filter is used to observe chlorophyll autofluorescence. Confocal optical sections are obtained at 0.5-μm increments. The images are color-coded green for GFP and magenta for chlorophyll autofluorescence.

For `O=CC[C@@H](O)[C@H](O)[C@H](O)CO` [2-dG, 2-deoxyglucose], the “effect on stomatal aperture” value ([1]; WT leaves, vs mannitol osmotic control) was “reduced stomatal aperture”.

With `CC1=CC(=O)CC(C)(C)[C@@]1(O)/C=C/C(C)=C\C(=O)O` [ABA, abscisic acid] the “NO production and stomatal closure in ABA-deficient mutant” value ([2]; 30 min) was “did trigger the production of NO”.

With `OC[C@@H](O)[C@@H](O)[C@H](O)[C@@H](O)CO` [sorbitol] the “effect on NO levels in guard cells” value ([2]; WT epidermal peels, 30 min) was “had no effect on NO levels”.

With `OC[C@H]1O[C@@](CO)(O[C@H]2O[C@H](CO)[C@@H](O)[C@H](O)[C@H]2O)[C@@H](O)[C@@H]1O` [Suc, sucrose] the “effect on guard-cell fluorescence of AtHXK1-expressing line” value ([2]; HK4 epidermal peels, Suc added) was “even more intense fluorescence”, the “NO production and stomatal closure in ABA-deficient mutant” value ([2]; 30 min) was “did not result in any increase in fluorescence or stomatal closure” and the “increase in guard-cell fluorescence (NO levels)” value ([2]; WT epidermal peels, 100 mM, 30 min) was 3.5 fold. The “effect on stomatal aperture of AtHXK1-expressing plants” value ([1]; HK4 leaves, 100 mM Suc) was “caused the stomata to close even further” and the “decrease of stomatal aperture size relative to sorbitol” value ([1]; WT tomato leaflets, 100 mM Suc vs 100 mM sorbitol) was 29%.

For `CC(=O)N[C@H]1C(O)O[C@H](CO)[C@@H](O)[C@@H]1O` (stereo partly drawn) [NAG, N-acetyl glucosamine], the “time to resumption of NO production after washing out NAG” value ([2]; NAG washed out with 100 mM Suc) was “less than 30 min”, the “effect on NO levels in guard cells” value ([2]; WT epidermal peels, 30 min) was “prevented the production of NO” and the “effect on Suc-induced stomatal closure of AtHXK1-expressing plants” value ([1]; HK4 leaves, 100 mM Suc with 20 mM NAG) was “abolished the closing effect of Suc”. For the same molecule, the “effect on Suc-induced stomatal closure” value ([1]; WT leaves, 100 mM Suc with 20 mM NAG) was “almost completely abolished the effect of Suc and prevented stomatal closure”.
